# The source made the active and inactive calls.
# Key:
# [1] = target: T1, Short transient receptor potential channel 4 (Mus musculus, UniProt Q9QUQ5); assay: mouse TRPC4 channel inhibitors, dose response, cell-based, HEK293 TRPC4/mu-opioid, Fluo-4 calcium (AID 434942); format: functional;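 note: potency of inhibitors blocking the TRPC4 calcium response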
# T1 sequence (Q9QUQ5 whole entry): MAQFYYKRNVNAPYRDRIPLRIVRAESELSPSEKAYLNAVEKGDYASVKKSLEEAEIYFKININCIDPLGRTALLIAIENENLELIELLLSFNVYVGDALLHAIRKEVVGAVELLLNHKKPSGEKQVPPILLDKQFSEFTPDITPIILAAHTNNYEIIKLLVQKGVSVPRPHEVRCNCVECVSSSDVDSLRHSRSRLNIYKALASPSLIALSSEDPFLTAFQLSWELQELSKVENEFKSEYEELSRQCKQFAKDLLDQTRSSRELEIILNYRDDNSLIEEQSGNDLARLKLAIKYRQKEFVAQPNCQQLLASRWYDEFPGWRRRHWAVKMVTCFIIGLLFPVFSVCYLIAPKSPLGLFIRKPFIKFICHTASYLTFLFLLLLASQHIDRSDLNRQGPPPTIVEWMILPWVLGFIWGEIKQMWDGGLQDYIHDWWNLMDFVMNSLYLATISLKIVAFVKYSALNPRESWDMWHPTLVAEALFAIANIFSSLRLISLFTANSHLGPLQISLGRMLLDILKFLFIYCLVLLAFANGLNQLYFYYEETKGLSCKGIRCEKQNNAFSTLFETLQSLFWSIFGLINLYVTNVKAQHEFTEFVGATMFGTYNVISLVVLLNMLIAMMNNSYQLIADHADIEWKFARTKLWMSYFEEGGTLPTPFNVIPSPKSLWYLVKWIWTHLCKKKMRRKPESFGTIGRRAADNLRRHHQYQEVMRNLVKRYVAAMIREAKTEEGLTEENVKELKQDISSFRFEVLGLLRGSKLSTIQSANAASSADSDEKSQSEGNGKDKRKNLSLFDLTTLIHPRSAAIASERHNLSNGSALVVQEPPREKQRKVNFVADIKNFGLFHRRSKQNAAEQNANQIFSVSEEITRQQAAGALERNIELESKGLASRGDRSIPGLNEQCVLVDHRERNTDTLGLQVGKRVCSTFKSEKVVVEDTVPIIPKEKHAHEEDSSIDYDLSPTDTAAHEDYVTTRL
# [2] = tested on: Streptococcus sp. 'group A'; assay: growth inhibition of control SK(-) GAS strain, dose response, counter-screen for streptokinase expression inhibitor project, luminescence, kanamycin, BacTiterGlo, confirmation (AID 1900); format: functional, organism-based
# [3] = target: T2, Sentrin-specific protease 6 (Homo sapiens, UniProt Q9GZR1); assay: SAR Analysis of small molecule inhibitors of Sentrin-specific protease 6 (SENP6) using a Luminescent assay. [Related pubchem assays (depositor defined):AID2582, AID2599]; format: functional
# T2 sequence (Q9GZR1 whole entry): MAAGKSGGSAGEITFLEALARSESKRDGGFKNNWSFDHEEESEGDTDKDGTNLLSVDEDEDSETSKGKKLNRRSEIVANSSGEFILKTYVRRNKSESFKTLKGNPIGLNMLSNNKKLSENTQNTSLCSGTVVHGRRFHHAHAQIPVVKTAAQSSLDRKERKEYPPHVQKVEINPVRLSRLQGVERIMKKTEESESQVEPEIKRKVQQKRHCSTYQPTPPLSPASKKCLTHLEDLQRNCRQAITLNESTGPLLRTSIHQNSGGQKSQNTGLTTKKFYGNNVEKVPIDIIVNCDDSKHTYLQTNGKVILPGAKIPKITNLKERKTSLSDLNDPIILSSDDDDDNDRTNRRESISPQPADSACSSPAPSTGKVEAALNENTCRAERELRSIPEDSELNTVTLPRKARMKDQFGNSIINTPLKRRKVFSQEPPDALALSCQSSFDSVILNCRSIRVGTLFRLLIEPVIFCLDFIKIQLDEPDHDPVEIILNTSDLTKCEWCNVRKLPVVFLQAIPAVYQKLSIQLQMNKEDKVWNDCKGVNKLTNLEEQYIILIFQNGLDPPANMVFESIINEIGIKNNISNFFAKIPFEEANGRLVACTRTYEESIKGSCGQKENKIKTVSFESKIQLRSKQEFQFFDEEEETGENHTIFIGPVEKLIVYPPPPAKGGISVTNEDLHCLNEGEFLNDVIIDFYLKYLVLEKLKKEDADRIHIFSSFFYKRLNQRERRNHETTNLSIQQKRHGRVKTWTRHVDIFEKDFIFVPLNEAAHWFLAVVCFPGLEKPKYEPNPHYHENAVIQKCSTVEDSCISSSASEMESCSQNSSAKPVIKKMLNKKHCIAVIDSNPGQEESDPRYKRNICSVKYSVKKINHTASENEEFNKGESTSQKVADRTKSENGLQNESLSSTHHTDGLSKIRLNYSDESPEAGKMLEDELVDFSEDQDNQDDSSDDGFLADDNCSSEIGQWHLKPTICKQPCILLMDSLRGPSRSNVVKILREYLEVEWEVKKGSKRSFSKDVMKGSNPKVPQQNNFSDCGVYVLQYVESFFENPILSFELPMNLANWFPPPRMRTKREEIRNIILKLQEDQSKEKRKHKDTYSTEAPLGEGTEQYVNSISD
# [4] = target: T3, Polyadenylate-binding protein 1 (Homo sapiens, UniProt P11940); assay: PABP1 MLLE–PAM2 binding inhibitor potency, dose response, biochemical, fluorescence polarization, FITC-PAM2 peptide (AID 602259); format: functional; details: read-out: IC50_Mean
# T3 sequence (P11940 whole entry): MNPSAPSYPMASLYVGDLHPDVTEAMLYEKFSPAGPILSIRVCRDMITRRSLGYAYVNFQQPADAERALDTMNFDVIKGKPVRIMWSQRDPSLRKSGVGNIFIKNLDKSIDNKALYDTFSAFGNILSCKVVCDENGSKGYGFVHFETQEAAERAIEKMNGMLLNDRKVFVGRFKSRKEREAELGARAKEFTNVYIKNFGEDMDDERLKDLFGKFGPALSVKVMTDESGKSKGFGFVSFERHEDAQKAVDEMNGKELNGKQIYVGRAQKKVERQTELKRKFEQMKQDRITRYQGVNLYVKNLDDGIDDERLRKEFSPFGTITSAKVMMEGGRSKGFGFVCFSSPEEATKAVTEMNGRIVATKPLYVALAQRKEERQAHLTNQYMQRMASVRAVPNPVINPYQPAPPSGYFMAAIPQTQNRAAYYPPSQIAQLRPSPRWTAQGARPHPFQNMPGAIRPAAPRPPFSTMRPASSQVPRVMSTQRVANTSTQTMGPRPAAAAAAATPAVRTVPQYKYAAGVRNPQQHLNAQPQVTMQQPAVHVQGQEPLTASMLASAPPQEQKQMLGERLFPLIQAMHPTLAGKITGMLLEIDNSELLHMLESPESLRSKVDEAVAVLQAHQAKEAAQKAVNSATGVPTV
# [5] = target: T3, Polyadenylate-binding protein 1; assay: PABP1 MLLE–PAM2 interaction inhibitors, dose response, miRNA deadenylation inhibitor project, biochemical, fluorescence polarization, Cy5-PAM2 peptide, secondary (AID 602260); format: functional; details: read-out: IC50_Mean
# [6] = target: Serine/threonine-protein phosphatase (Homo sapiens, UniProt Q9BPW0); assay: PP5 phosphatase inhibitors, dose response, biochemical, fluorescence (AID 2395)
# Serine/threonine-protein phosphatase, sequence (Q9BPW0 whole entry): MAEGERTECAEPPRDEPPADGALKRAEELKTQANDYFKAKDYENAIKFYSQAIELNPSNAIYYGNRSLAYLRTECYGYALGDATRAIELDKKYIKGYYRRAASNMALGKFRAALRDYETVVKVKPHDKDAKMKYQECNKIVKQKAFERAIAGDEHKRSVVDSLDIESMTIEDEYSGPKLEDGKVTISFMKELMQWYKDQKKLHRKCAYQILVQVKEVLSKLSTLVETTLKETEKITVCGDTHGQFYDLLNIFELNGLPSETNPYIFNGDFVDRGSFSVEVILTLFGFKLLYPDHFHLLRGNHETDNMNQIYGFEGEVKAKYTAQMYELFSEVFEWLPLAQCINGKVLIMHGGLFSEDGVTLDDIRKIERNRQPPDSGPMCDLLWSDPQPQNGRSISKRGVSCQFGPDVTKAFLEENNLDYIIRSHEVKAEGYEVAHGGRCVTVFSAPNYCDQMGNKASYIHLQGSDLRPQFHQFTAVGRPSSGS
# [7] = target: Serine/threonine-protein phosphatase PP1-alpha catalytic subunit (Homo sapiens, UniProt P62136); assay: PP1 phosphatase inhibitors, dose response, biochemical, fluorescence (AID 2394)
# Serine/threonine-protein phosphatase PP1-alpha catalytic subunit, sequence (P62136 whole entry): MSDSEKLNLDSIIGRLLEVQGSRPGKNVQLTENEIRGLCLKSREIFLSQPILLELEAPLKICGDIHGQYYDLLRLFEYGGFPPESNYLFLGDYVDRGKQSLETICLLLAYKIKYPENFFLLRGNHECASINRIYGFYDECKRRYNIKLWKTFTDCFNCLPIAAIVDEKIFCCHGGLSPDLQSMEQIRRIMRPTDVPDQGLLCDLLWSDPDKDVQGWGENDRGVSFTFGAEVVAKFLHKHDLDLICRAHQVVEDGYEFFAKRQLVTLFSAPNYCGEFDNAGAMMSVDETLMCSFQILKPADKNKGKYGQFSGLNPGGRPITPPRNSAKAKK
# [8] = cytotoxicity toward DRD oncogenic fibroblasts, dose response, cell-based, non-viral oncogenic, luminescence (AID 1934); format: functional; details: Homo sapiens
# BJ = assay: cytotoxicity toward BJ-TERT fibroblasts, dose response, cell-based, RAS-independent, luminescence (AID 1933); format: functional; details: Homo sapiens
# [9] = HeLa cell cytotoxicity, dose response, cytotoxicity control for MgcRacGAP inhibitor project (AID 624300); format: functional
# [10] = non-specific cell cytotoxicity, dose response, cytotoxicity control for PAX8 inhibitor project, plate reader, dry powder samples (AID 743021); format: functional, cell-based
# [11] = Luminescence-based dose response cell-based high throughput screening assay for cytotoxic compounds using the IEC-6 intestinal epithelial cell line. [Related pubchem assays: 1858 (Summary AID.), 1825 (Counterscreen.), 1907 (Confirmation screen.)]; format: functional
# [12] = cytotoxicity toward NIH3T3 fibroblasts, dose response, counter-screen, cell-based, ATP luminescence, mouse fibroblasts (AID 2010); format: functional;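 note: cells exposed to compound for about 90 hours before reading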
structure (smiles),measurement,setting,value
Cc1cccc(C)c1-n1cccc1/C=C1\SC(=S)N(c2cccc(C(=O)O)c2)C1=O,EC50,[1],3.35 µM (active)
same,EC50,[2],2.07 µM (active)
Oc1ccc(/C=N/Nc2cc(N3CCCC3)nc(N3CCCC3)n2)cc1,IC50,[3],18.1 µM (active)
same,IC50,[4],34.4 µM (inactive)
same,IC50,[5],> 66 µM (inactive)
same,IC50,[6],10.9 µM (not active)
same,IC50,[7],> 67 µM (not active)
COc1ccc(S(=O)(=O)/N=C2\C=C(Nc3ccc(O)cc3)C(=O)c3ccccc32)cc1,EC50,[8],2.89 µM (active)
same,EC50,BJ,1.53 µM (active)
same,CC50,[9],2.15 µM (active)
same,AC50,[10],7.4 µM (active)
same,IC50,[11],0.586 µM (active)
COc1ccc(/C=N/Nc2cc(N3CCCC3)nc(N3CCCC3)n2)cc1,EC50,[12],8.97 µM (active)
